Test results as given in US8883789B2, “Piperazine derivatives and their use as positive allosteric modulators of mGluR5 receptors” (Boehringer Ingelheim International GmbH, priority 2011, dated 2014).
pEC50: −log10 of the molar value.

Target: T1, human recombinant mGluR5 (Homo sapiens, UniProt P41594)
T1 construct: expressed in transfected cells; hygromycin and geneticin selection
Test: positive modulation of mGluR5, calcium based FLIPR assay
Settings: HEK 293 cell line expressing human recombinant mGluR5; Ca2+ peak height after glutamate at approximately 5% basal stimulation; nonlinear regression
Outline: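 HEK293 cells with tetracycline-free induction, Calcium-4 dye-loaded in Ringer pH 7.4. Compound added 5 min before glutamate at ~5% of maximal effect, 1% DMSO. EC50 from peak Ca2+ fluorescence, normalized to basal glutamate (100%) and 10 μM CDPPB (200%), via nonlinear regression.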

T1 sequence (P41594 21-1212): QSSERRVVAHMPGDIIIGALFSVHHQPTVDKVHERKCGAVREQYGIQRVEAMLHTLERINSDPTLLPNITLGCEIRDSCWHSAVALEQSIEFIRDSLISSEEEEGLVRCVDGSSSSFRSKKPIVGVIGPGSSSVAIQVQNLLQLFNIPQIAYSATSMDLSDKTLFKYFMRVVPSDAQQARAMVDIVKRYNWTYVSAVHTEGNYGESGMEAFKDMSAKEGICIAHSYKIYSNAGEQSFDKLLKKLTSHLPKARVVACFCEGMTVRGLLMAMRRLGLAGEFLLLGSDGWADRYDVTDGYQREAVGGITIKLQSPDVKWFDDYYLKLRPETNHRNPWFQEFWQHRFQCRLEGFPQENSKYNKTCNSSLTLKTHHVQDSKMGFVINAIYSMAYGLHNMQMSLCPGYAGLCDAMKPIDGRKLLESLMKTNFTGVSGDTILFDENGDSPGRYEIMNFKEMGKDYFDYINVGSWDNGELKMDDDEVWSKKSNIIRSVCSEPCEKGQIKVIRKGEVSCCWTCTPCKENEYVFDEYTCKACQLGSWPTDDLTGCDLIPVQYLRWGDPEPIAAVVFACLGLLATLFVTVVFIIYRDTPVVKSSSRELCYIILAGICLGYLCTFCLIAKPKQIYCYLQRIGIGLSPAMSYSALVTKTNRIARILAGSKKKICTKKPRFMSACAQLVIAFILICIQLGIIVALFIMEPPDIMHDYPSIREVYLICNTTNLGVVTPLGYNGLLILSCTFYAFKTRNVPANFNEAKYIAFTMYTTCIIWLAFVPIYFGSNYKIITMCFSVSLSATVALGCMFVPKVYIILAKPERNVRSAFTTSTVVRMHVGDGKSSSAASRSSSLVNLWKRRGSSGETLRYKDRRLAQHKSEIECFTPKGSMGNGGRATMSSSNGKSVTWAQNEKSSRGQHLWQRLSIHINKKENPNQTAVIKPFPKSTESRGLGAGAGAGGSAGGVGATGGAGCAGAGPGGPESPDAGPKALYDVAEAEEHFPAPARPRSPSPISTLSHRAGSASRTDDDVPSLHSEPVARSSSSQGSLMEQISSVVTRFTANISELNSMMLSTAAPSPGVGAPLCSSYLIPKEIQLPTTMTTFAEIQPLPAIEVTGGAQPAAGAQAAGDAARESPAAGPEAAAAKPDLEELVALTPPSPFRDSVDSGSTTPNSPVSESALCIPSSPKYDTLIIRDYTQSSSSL

Compound | pEC50
O=C(c1cc(Br)c(Br)o1)N1CCN(C(=O)c2ncn(-c3cccc(F)c3)n2)C2(CCC2)C1 [Example 306] | 6.35
COc1cccc(C(=O)N2CCN(C(=O)c3ncn(-c4cccc(F)c4)n3)C3(CCC3)C2)n1 [Example 307] | 6.12
O=C(c1cccc(Cl)c1)N1CCN(C(=O)c2ncn(-c3cccc(Cl)c3)n2)C2(CCCC2)C1 [Example 308] | 6.44
O=C(c1cccc(Cl)c1)N1CCN(C(=O)c2ncn(-c3ccccc3)n2)C2(CCCC2)C1 [Example 309] | 6.84

Results, then the compound that gave them:

pEC50 | Compound
6.10 | COCC1(C)CN(C(=O)c2cccc(OC)n2)CCN1C(=O)c1ncn(-c2cccc(C)c2)n1 (stereo not shown) [Example 310]
6.24 | COCC1(C)CN(C(=O)c2cccc(OC)n2)CCN1C(=O)c1ncn(-c2cccc(Cl)c2)n1 (stereo not shown) [Example 311]
6.03 | CCC1(CC)CN(C(=O)c2cccc(Cl)c2)CCN1C(=O)c1ncn(-c2ccccc2)n1 [Example 313]
